# Target: AOC3 (Homo sapiens (Human), UniProt Q16853)
# Experiment: MAO-Glo AOC3 assay
# Format: biochemical
# Settings: recombinant CHO cells overexpressing AOC3 enzyme
# Excerpt: The MAO-Glo™ Assay (commercial available from PROMEGA, #V1402) provides a sensitive method for the measurement of monoamine oxidase (MAO) activity (Valley, M. P. et al., 2006, Anal. Biochem. 359: 238-246) from a variety of tissues, biofluids or recombinant expressed or purified enzymes. As substrate a derivate of the beetle luciferin ((4S)-4,5-dihydro-2-(6-hydroxybenzothiazolyl)-4-thiazole-carboxylic acid) is used, which is oxidized at a primary amine moiety. After a spontaneous elimination and a catalyzed esterase reaction, the turnover of the luciferine by the luciferase is recorded as a signal of AOC3 activity.
# An aliquot of 3 μL of the compound dilution is added to a 384 well plate (Optiplate, PS, flat bottom, white, PERKIN ELMER, #6007290) with a final DMSO concentration of 6.6%. Recombinant CHO cells, overexpressing the human (1500 cells/well), mouse (1000 cells/well) or rat (500 cells/well) AOC3 enzyme are diluted in reaction buffer and added in a volume of 15 μL to the wells. After incubation for 20 minutes at 37° C., 2 μL of MAO substrate (dissolved in DMSO at 16 mM, adjusted to assay concentration in reaction buffer to a final assay concentration of 20 μM) is added and further incubated for 60 minutes at 37° C. The turnover of the substrate is determined by the addition of 20 μL of the detection-mix which was generated by the addition of reconstitution buffer with esterase (PROMEGA, #V1402) to the luciferine detection reagent (PROMEGA, #V1402). After an incubation period of 20 minutes, the luminescent signal is measured with Envision 2104 Multilabel Reader (PERKIN ELMER).
# Sequence of AOC3 (Q16853 whole entry): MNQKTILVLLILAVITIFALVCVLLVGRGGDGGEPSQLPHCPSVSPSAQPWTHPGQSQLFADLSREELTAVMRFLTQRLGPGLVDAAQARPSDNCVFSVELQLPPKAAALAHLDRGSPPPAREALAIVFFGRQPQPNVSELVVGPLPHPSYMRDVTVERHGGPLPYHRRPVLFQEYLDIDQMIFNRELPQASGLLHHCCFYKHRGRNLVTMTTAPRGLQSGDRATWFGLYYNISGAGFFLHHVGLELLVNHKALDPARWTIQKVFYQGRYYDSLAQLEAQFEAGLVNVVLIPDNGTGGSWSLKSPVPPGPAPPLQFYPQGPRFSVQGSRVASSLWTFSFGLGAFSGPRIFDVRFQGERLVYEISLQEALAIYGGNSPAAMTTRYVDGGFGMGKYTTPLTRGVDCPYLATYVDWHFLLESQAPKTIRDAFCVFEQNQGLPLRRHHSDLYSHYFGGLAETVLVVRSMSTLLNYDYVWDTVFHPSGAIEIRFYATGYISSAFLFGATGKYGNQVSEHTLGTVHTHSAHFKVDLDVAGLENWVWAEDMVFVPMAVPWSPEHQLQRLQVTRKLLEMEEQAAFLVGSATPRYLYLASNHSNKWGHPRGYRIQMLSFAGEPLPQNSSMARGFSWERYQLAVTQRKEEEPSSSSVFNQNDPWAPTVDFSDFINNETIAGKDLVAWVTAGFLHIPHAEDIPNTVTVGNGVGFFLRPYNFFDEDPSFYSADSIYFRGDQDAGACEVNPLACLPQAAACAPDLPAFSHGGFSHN
row,IC50,Compound
1,146 nM,Cc1cc(C)cc(N2CCN(c3c(C#N)ccc(COC(=O)NC(=N)N)c3F)CC2)c1 [Example 1.052]
2,27 nM,N#Cc1ccc(COC(=O)NC(=N)N)c(F)c1N1CC=C(c2ccccc2)CC1 [Example 1.046]
3,19 nM,CC(=O)N[C@@H](C)c1ccc(C2CN(c3c(C#N)ccc(COC(=O)NC(=N)N)c3F)C2)cc1 [Example 1.015]
4,77 nM,COc1cnc(C2=CCN(c3c(C#N)ccc(COC(=O)NC(=N)N)c3F)CC2)nc1 [Example 1.067]
5,5 nM,N#Cc1cccc(C2CCN(c3c(C#N)ccc(COC(=O)NC(=N)N)c3F)CC2)c1 [Example 1.022]
6,20 nM,N#Cc1ccc(COC(=O)NC(=N)N)c(F)c1N1CCC(C2CCOCC2)CC1 [Example 1.054]
7,280 nM,N#Cc1ccc(COC(=O)NC(=N)N)c(F)c1N1CCC(O)(c2ccccc2)CC1 [Example 1.085]
8,24 nM,CS(=O)(=O)N1CCC(C2CN(c3c(C#N)ccc(COC(=O)NC(=N)N)c3F)C2)CC1 [Example 1.004]
9,56 nM,N#Cc1ccc(COC(=O)NC(=N)N)c(F)c1N1CCC(c2cccc(Cl)c2)CC1 [Example 1.076]
10,177 nM,Cc1ccc(N2CCN(c3c(C#N)ccc(COC(=O)NC(=N)N)c3F)CC2)cc1 [Example 1.041]
11,103 nM,N#Cc1ccc(COC(=O)NC(=N)N)c(F)c1N1CCN(c2ccc(C(F)(F)F)cc2)CC1 [Example 1.073]
12,5 nM,CS(=O)(=O)N1CCC(C2CCN(c3c(C#N)ccc(COC(=O)NC(=N)N)c3F)CC2)CC1 [Example 1.017]
13,95 nM,N#Cc1ccc(COC(=O)NC(=N)N)c(F)c1N1CCCN(c2cccnc2)CC1 [Example 1.011]
14,10 nM,N#Cc1ccc(COC(=O)NC(=N)N)c(F)c1N1CCN(c2cnccn2)CC1 [Example 1.007]
15,54 nM,N#Cc1ccc(COC(=O)NC(=N)N)c(F)c1N1CCC(c2ncc(Cl)cn2)CC1 [Example 1.037]
16,166 nM,N#Cc1ccc(COC(=O)NC(=N)N)c(F)c1N1CCC(C#N)(c2ccccc2)CC1 [Example 2.001]
17,2 nM,N#Cc1cccc(N2CCN(c3c(C#N)ccc(COC(=O)NC(=N)N)c3F)CC2)c1 [Example 1.040]
18,65 nM,Cc1cccc(C2CCN(c3c(C#N)ccc(COC(=O)NC(=N)N)c3F)CC2)c1 [Example 1.047]
19,17 nM,N#Cc1ccc(COC(=O)NC(=N)N)c(F)c1N1CC=C(c2ncco2)CC1 [Example 1.043]
20,4 nM,CC(=O)N1CCC(C2CCN(c3c(C#N)ccc(COC(=O)NC(=N)N)c3F)CC2)CC1 [Example 1.014]
21,14 nM,N#Cc1ccc(COC(=O)NC(=N)N)c(F)c1N1CCN(c2cccc(F)c2)CC1 [Example 1.028]

row,Compound,IC50
1,N#Cc1ccc(COC(=O)NC(=N)N)c(F)c1N1C2CCC1CC(c1ccccc1)C2 (stereo not shown) [Example 1.077],293 nM
